Each block holds one compound with its values, some of them ahead of it.
What was measured:
[1] = Alcoholysis of 2′-acyl group followed by analytical HPLC (Examples 1-4); type: physicochemical
From the text: As part of research to better understand the interaction of PAC-related compounds with various components within cancer cells,^11,12 the inventors deployed CAC protection of both PAC and 10-deacetylpaclitaxel (DAP) (FIG. 4). During purification of various mixtures of the three predominate CAC derivatives obtained for DAP, namely the 2′-mono-, the 2′,7-bis- and the 2′,7,10-tri-CAC protected materials, the 2′-adducts appeared to be unstable when allowed to stand for prolonged periods in methanol. Testing purified materials on a 1 mg scale confirmed this observation. Moving to a larger sample, a 40 mL solution of 2′,7-bis-CAC-DAP was then examined at a concentration of 1 mg/mL. Methanolysis of the 2′-adduct was complete after 48 hours at ambient temperature. The exclusive product was isolated by evaporation of solvent, washed with cold water, and its structure characterized as 7-mono-CAC-DAP according to NMR (FIG. 5-Table 2) and elemental analysis. […] In this case the structural integrity for the latter was additionally confirmed by its independent synthesis analogous to a literature procedure^4 wherein after treatment of PAC with chloroacetic anhydride in pyridine, the reaction mixture was subjected to 10 mM ammonia at room temperature for 1 hour prior to preparative HPLC separation of the resulting mixture of esters.
7-Monochloroacetyl-10-deactylpaclitaxel (7-CAC-DAP) (2). 2′,7-bis-CAC-DAP (1) (30 mg, 0.031 mmol) was dissolved in 40 mL of methanol (HPLC grade) and left at ambient temperature. 20 μL samples were withdrawn at several hour intervals and analyzed directly by HPLC. The conversion was complete in 48 hrs. Solvent was evaporated to dryness leaving a glossy residue which crystallized upon addition of water. Yield: 25 mg (0.028 mmol) having 97% purity by HPLC; mp 163-166° C.; Analytical HPLC RT=24 min. (Discovery column); Elemental Analysis calculated for formula C47H50ClNO14: C, 63.55%; H, 5.67%; N, 1.58%. Found: C, 63.08%; H, 5.97%; N, 1.63%.
7-Monochloroacetylpaclitaxel (7-CAC-PAC) (4). 1 mg of 2′,7-bis-CAC-PAC (3) was dissolved in 1 mL of methanol and the solution left at ambient temperature. 20 μL samples were withdrawn at several hour intervals and directly analyzed by HPLC. The conversion was complete in 48 hours. […] (Discovery column); Elemental Analysis calculated for formula C49H52Cl NO15: C, 63.26%; H, 5.63%; N, 1.51%. […]
7-Methoxyacetylpaclitaxel (7-MAC-PAC) (5). […] Samples (20 μl) were withdrawn at several hour intervals and analyzed directly by HPLC. […] (Suplecosil column); Elemental analysis calculated for C50 H55 NO16.H2O: C, 63.36%; H, 6.09%; N, 1.48%. […]

[2] = Stability of PAC and DAP CAC analogs in methanol at ambient temperature (HPLC decay curve); type: physicochemical
Experimental: During development of an HPLC method to purify 2′,7-bis-monochloroacetyl-10-deacetylpaclitaxel (2′,7-bis-CAC-DAP), the inventors discovered that the compound was unstable in methanol solution at a concentration of 1 mg/ml. […] Thus, we decided to further investigate the apparent differences in the stability of several PAC and DAP CAC esters relative to concentration and acidity.
Compound abbreviations are provided in FIG. 2-Table 1 according to the nomenclature and numbering specified in FIG. 1. RT=Retention times on an analytical HPLC (Waters) equipped with a reversed-phase column (Supleco Discovery C18) using a gradient elution (60% acetonitrile from 0-2 min., linearly ramped from 60% to 75% from 2-12 min., and held steady at 75% for the duration of the assay) at a flow rate of 1.2 ml/min. monitored by UV detection (225 nm). NMR (CDCl3) values for the C2′ proton shifts are in ppm relative to TMS. T1/2=Apparent half-lives. All compounds were independently prepared and characterized by HPLC, NMR and elemental analyses. ^†Previously reported by Rao et al. ^††Previously reported by Rimoldi et al.^21 *Less than 5% breakdown after 72 hr.
A 1 mg/ml solution of 2′,7-bis-CAC-DAP in methanol was allowed to stand at ambient temperature. 20 μl samples were withdrawn at T=0, 2, 24 and 48 hrs. Longer incubations were deployed for compounds showing little breakdown. Aliquots were assayed directly by HPLC after establishing that responses obtained for serial dilutions of a freshly prepared 10 mg/ml stock solution of 2′,7-bis-CAC-DAP were linear throughout the concentration range anticipated for the samples. A decay curve was generated by following the decrease in compound peak area versus time. An apparent half-life (T1/2) was then calculated from a semi-log plot using Microsoft Excel. The decay curve for 2′,7-bis-CAC-DAP appears to follow pseudo first-order kinetics typical for solvolysis reactions. The T1/2 value for conversion to 7-CAC-DAP is 5.5 hrs. The product growth curve matches very closely with the compound decay curve. Similar results were obtained for all of the other 2′-chloroacetylated derivatives listed in FIG. 2-Table 1 except for 2′ CAC-DAP whose T1/2 appears to be about three-times longer (18 hrs.). Nevertheless, this derivative is still much more labile than the chloroacetyl esters placed at either the 7- or 10-positions (T1/2 values all >>72 hrs.).
For the more concentrated experiments, a 10 mg/ml solution of 2′,7-bis-CAC-DAP was allowed to stand at ambient temperature. […] For the weakly acidic studies, less than 4% breakdown of 2′,7-bis-CAC-DAP was observed over 48 hrs. and the calculated T1/2 was determined to be >1,000 hrs. […]

Conversion (loss of 2′-acyl group) ([1]; 30 mg in 60 ml methanol, 47° C., within 7 hours): ~90%
Structure (SMILES): COCC(=O)O[C@H]1C[C@H]2OC[C@@]2(OC(C)=O)[C@H]2[C@H](OC(=O)c3ccccc3)[C@]3(O)C[C@H](OC(=O)[C@H](OC(=O)COC)[C@@H](NC(=O)c4ccccc4)c4ccccc4)C(C)=C([C@@H](OC(C)=O)C(=O)[C@]12C)C3(C)C [2′,7-bis-MAC-PAC]

Conversion (loss of 2′-acyl group) ([1]; 80% ethanol/20% water, 56° C., 24 hours): Approximately 50%
Conversion (loss of 2′-acyl group) ([1]; 80% ethanol/20% water, ambient temp., 22 hours): Approximately 20%
Time to complete methanolysis of the 2′-adduct ([1]; about 1 mg/mL in methanol, ambient temperature): 48 h
Breakdown ([2]; 1 mg/ml in methanol with 0.2% acetic acid, over 48 hrs.): less than 4%
Solvolysis in more concentrated methanolic solution ([2]; 20 mg/ml, for preparative HPLC): did not appear to undergo solvolysis
Stability in methanol solution ([2]; concentration of 1 mg/ml): unstable
Structure (SMILES): CC(=O)O[C@@]12CO[C@@H]1C[C@H](OC(=O)CCl)[C@@]1(C)C(=O)[C@H](O)C3=C(C)[C@@H](OC(=O)[C@H](OC(=O)CCl)[C@@H](NC(=O)c4ccccc4)c4ccccc4)C[C@@](O)([C@@H](OC(=O)c4ccccc4)[C@H]21)C3(C)C [2′,7-bis-CAC-DAP, 2′,7-bis-Monochloroacetyl-10-deacetylpaclitaxel]

Breakdown to DAP ([2]; methanol, studied for up to 120 hrs.): no significant breakdown
Structure (SMILES): CC(=O)OC12COC1CC(OC(=O)CCl)C1(C)C(=O)C(O)C3=C(C)C(OC(=O)C(O)C(NC(=O)c4ccccc4)c4ccccc4)CC(O)(C(OC(=O)c4ccccc4)C21)C3(C)C (centres unmarked) [Compound 7-CAC-DAP, 7-Monochloroacetyl-10-deactylpaclitaxel]

From patent publication US6846937B2, “Method for the selective removal of acyl-functionality attached to the 2'-hydroxy-group of paclitaxel-related derivatives” (The University of Toledo, priority 2001, dated 2005)
